Data set [1] relates to Malme3M. In words: growth rate effect of drugs in sgGAPDHS genome-edited cells versus control. In kind it is cell-based. Conditions: spCas9/sgGAPDHS genome-editing. An excerpt: FIGS. 8A-8C. GAPDHS is required for BRAF inhibitor sensitivity in vitro. Lentiviral spCas9/sgGAPDHS genome-editing in Malme3M 8A) reduces protein levels (WB) but not signaling consequences following vemurafenib or PD-0325901. 8B) reduction in the inherent NAD+/NADH ratio is seen, but not treatment affected changes; however the basal NADP+/NADPH ratio is higher and treatment causes divergent changes. 8C) Growth rates are less affected by vemurafenib, PD-0325901, cobimetinib, and PLX7904 due to sgGAPDHS targeting. Significance using 2-sided, 2-sample t-test; *p<0.05; **p<0.01.
We generated short-guide RNA (sgRNA) for CRISPR/Cas9-mediated genome-editing within the pLentiCRISPRv2 system to assess whether GAPDHS regulates sensitivity to BRAF-targeted drugs through the metabolic state. […] (FIG. 8C). […] We will expand these analyses to also include SKMEL28 and UACC62, and assess dabrafenib and encorafenib. We will also measure basal and changes following BRAF/MEK-inhibitor on the inherent metabolic state, measured as NAD(P)+/NAD(P)H ratios and GAPDH/S activity.

The subject of data set [2] is SKMEL2(NRAS-Q61R). In words: drug-mediated growth inhibition as percentage of baseline doubling rate. In kind it is cell-based. The following applies: NRAS-mutant SKMEL2. An excerpt: FIGS. 5A-5B. Response to BRAF/MEK inhibition in melanoma cells was associated with the inherent metabolic state. 5A) Effects on cell doubling rates caused by vemurafenib and PD0325901 treatment in melanoma and carcinoma cell lines. […] 5B) Pearson metric of PD-0325901 growth rate effects used on gene-level transcription data (HuExon 1.0ST) for Gene Set Enrichment Analysis (GSEA) identified specific pathways associated with sensitivity, particularly oxidative phosphorylation, and resistance to BRAF/MEK inhibition.
Because melanoma cells undergo metabolic shift in response to BRAF- and MEK-targeted therapy, we wanted to characterize the drug sensitivities across a melanoma cell line cohort (FIG. 4A). To ensure that rapidly growing cells versus slow were compared in a normalized manner, we assessed the degree of drug-mediated growth inhibition as percentage of the baseline doubling rate for each cell line (FIG. 5A). This approach was based on classical chemotherapy effect measures [26;27 recently used by others].

For the compound `Cc1nc(NC(=O)N2CCC[C@H]2C(N)=O)sc1-c1ccnc(C(C)(C)C(F)(F)F)c1` [BYL719], the “sensitivity (measured as growth rate effect) of sgGAPDHS cells versus control” value in data set [1] is “did not, however, observe reduced sensitivity”. The same measure, in the same setting: with `O=C(c1ccc(F)c(F)c1Nc1ccc(I)cc1F)N1CC(O)([C@@H]2CCCCN2)C1` [cobimetinib] the entry was “reduced sensitivity”; with `CCN(C)S(=O)(=O)Nc1ccc(F)c(C(=O)c2c[nH]c3ncc(-c4cnc(C5CC5)nc4)cc23)c1F` [PLX7904], “reduced sensitivity”. Take `O=C(NOC[C@H](O)CO)c1ccc(F)c(F)c1Nc1ccc(I)cc1F` [PD-0325901]: the “sensitivity (measured as growth rate effect) of sgGAPDHS cells versus control” value in data set [1] is listed as “reduced sensitivity”. For `CCCS(=O)(=O)Nc1ccc(F)c(C(=O)c2c[nH]c3ncc(-c4ccc(Cl)cc4)cc23)c1F` [vemurafenib], the “doubling rate under BRAF inhibitor, % of normal doubling rate” value in data set [2] is listed as 100%.
